Experimental data: PubChem BioAssay AID1963962 (Molecular Pharmacology Branch, DTP, NCI, 2024)

Tested on: 967376-340-R-J2-PDC multicell spheroid viability
Assay: Anticancer human tumor 967376-340-R-J2-PDC patient-derived colon adenocarcinoma cell line growth inhibition [PI3K]
Conditions: for viability, T/C: stronger effect = lower value
In short: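 Complex 3D spheroids (cancer cells + endothelial HUVEC + mesenchymal stem cells); drug pairs of targeted agent x inavolisib/alpelisib/duvelisib/copanlisib; half-log series from ~Cmax, max 10 microM if Cmax unknown; endpoint viability.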
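Further: spheroids exposed to agents for 7 days before read-out.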
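Wherever viability, T/C is given: luminescence used as surrogate of cell viability.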

IC50 (curve of compound): > 10 µM
SMILES: Cn1ncc(Cl)c1-c1cc(C(=O)NC(CN)Cc2cccc(F)c2)sc1Cl (stereo not given)
viability, T/C (compound 0.0316 µM): 107% [middle of 4 runs]
viability, T/C (compound 0.316 µM): 91.2% [middle of 4 runs]
viability, T/C (compound 3.16 µM): 81.3% [middle of 4 runs]
viability, T/C (compound 10 µM): 76.4% [middle of 4 runs]
